Here are results for five compounds from ChEMBL document CHEMBL6177943, “Recent advances in small molecule design strategies against hepatic fibrosis” (Eur J Med Chem, 2025).

Data set [1] can be described thus: Anti-hepatic activity in rat HSC-T6 cells assessed as inhibition of LPS-induced cell proliferation at 10 uM incubated for 24 hrs by MTS assay relative to control. The class given is functional. (In general: Tetrazolium dyes change colour on reduction, which living cells bring about.)
The test system of a further data set is LX-2. The data set is described as follows: Anti-fibrotic activity in human LX-2 cells assessed as inhibition of alpha-SMA mRNA expression. Further details: scale not given: the % may be the effect or the level left. Format: functional.
For data set [2], the target named is Collagen alpha-1(I) chain (Homo sapiens) (UniProt P02452). In words: Inhibition of COL1A1 (unknown origin) transfected in human LX-2 cells at 40 uM incubated for 24 hrs by Bright-Glo luciferase assay relative to control. The class given is cell-based.
The nature of data set [3]: Cmax in Sprague-Dawley rat at 25 mg/kg, po measured after 8 hrs. Particulars: in vivo. Format: ADME, organism-based.

Chain of Collagen alpha-1(I) chain (Homo sapiens) (P02452 whole entry): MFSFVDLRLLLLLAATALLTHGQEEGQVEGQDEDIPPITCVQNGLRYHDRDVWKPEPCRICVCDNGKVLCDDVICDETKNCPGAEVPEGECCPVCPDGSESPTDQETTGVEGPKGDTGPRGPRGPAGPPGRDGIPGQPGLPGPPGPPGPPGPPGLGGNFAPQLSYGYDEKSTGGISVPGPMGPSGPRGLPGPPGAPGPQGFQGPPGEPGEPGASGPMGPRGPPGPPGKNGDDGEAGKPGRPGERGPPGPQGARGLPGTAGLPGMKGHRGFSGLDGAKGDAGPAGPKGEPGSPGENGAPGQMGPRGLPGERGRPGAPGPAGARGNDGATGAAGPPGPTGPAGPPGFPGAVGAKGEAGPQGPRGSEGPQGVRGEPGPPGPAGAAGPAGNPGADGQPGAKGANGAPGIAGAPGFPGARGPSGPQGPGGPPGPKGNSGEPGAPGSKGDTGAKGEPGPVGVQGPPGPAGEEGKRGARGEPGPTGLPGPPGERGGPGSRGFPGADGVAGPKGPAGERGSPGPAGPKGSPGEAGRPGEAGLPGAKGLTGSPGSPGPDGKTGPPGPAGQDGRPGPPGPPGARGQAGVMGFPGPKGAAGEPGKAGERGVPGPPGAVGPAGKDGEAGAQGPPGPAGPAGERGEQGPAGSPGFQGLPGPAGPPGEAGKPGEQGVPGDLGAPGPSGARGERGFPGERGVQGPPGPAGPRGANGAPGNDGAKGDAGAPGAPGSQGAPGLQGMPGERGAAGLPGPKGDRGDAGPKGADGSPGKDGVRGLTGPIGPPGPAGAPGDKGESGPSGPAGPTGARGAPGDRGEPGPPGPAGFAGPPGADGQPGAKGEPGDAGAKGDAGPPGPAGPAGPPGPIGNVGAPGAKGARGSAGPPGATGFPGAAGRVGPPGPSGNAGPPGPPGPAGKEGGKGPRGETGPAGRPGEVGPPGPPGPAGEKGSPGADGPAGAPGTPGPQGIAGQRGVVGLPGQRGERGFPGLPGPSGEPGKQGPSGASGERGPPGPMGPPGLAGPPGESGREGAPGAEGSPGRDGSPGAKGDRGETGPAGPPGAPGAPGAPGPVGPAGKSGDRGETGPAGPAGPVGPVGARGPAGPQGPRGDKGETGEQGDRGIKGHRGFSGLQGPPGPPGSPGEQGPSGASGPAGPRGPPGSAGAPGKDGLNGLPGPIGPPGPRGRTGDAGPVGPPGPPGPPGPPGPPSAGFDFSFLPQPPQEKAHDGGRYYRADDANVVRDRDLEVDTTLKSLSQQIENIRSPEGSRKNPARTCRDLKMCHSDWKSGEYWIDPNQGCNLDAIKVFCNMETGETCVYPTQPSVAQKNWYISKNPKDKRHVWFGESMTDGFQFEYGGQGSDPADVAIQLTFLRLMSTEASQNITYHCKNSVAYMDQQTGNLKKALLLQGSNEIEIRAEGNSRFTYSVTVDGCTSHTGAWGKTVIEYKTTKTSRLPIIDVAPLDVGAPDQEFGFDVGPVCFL

The inhibition is the share of the control response that was lost under treatment. Consider `COC(=O)c1cc2cc(OC)c(OC)cc2c2cc(C)ccc12`, for which, in data set [1], the inhibition at 10 µM was determined as 34.2%.

With `CCCCCCCCN(C)C(=O)c1cc(O)c(O)c(O)c1`, in the data set on LX-2, the Activity is 47.7%.

With `C1=C2CCCN[C@H]2[C@@H]2C[C@H]1[C@H]1CCCCN1C2`, in data set [2], the inhibition amounted to 4.7%.

In data set [2], `O=c1cccc2n1C[C@@H]1CNC[C@H]2C1` yielded an inhibition of 90%.

Usually Cmax stands for the highest concentration seen after dosing. As for `O=c1cccc2n1CC1CC2CN(Cc2cc(Cl)ccc2Cl)C1` (stereo not given), the highest level in data set [3] (Cmax) was 960 nM.
